Measurements reported in US8173169B2, “Formulation and process for the preparation of modafinil” (Hikma Pharmaceuticals, priority 2007, dated 2012).
Where “and” joins values, the source holds several entries; their conditions need not be identical. Identical values can stand only once.

Tests used:
Type in all cases: physicochemical
[1] = Dissolution rates of modafinil prepared by different formulation processes
Text: The choice of excipient is also shown to have a significant influence on the dissolution profiles.

[2] = Sieve analysis of particle size distribution; details: by weight retained
Text: In using the Coulter Counter, particles suspended in a weak electrolyte solution are drawn through a small aperture, separating two electrodes between which an electric current flows. The voltage applied across the aperture creates a “sensing zone”. As particles pass through the aperture, they displace their own volume of electrolyte, momentarily increasing the impedance of the aperture. This change in impedance produces a pulse that is digitally processed in real time. The Coulter Principle states that the pulse is directly proportional to the tri-dimensional volume of the particle that produced it. […] Sieve sizing is one of the oldest methods used to determine particle size distributions. Samples of known weight are placed on the largest sieve in a stack of sieves of decreasing size. Upon shaking, sample fractions are caught on the respective sieve corresponding to the size of the particles.
Table 2 summarizes particle size distribution of Modafinil of the present invention measured by sieve size analysis.
(§1) Tables 1 and 2 summarize the particle size distribution of modafinil particles B#62605008s obtained by two different sizing methods. Values are reported in microns. The term d (0.1) denotes the diameter of the largest particle found in 10% of the particles sorted in increasing order. The other four terms refer to the diameter of the largest particle found in each 50%, 85%, 90% and 95% of the particles. The term SD denotes the standard deviation and is a measure of the spread of its values and the term RSD refers to the absolute value of the coefficient variation expressed as a percentage. In Table 2 the percentage by weight of particles retained on each mesh cut is reported.

[3] = Particle size analysis by laser diffraction (Malvern Mastersizer 2000)
Text: As is appreciated by those in the art, different measurement instruments may provide different measurements of the same particles. […] Applicants have therefore performed modafinil particle size analysis using a Malvern Mastersizer 2000 (Worcestershire, UK), and a Coulter Counter (Hiac/Royco instruments, USA) and mechanical sieving methods.
Malvern Mastersizer utilizes the principle of laser diffraction particle sizing. The principle involved is that during the laser diffraction measurement, particles are passed through a focused laser beam and these particles scatter light at an angle that is inversely proportional to their size. The angular intensity of the scattered light is then measured by a series of photosensitive detectors and the map of scattering intensity versus angle is the primary source of information used to calculate the particle size.
Particle size measurements using the Hiac/Royco were generated on Modafinil particles of the present invention suspended in saturated water. For Malvern laser sizing, Modafinil particles can either be suspended in sunflower oil or sized in the dry form.
as §1

[4] = single trials 1-3, Malvern Mastersizer 2000

NC(=O)C[S+]([O-])C(c1ccccc1)c1ccccc1 (stereo not shown) [Modafinil particles, Modafinil]
% Modafinil Dissolved ([1]; 5 mins): 1.80%
% Modafinil Dissolved ([1]; 10 mins): 5.19%
% Modafinil Dissolved ([1]; 15 mins): 9.73%
% Modafinil Dissolved ([1]; 20 mins): 14.31%
% Modafinil Dissolved ([1]; 30 mins): 23.19%
% Modafinil Dissolved ([1]; 40 mins): 31.25%
% Modafinil Dissolved ([1]; 60 mins): 44.09%
% Modafinil Dissolved ([1]; 90 mins): 71.42%
dissolution profile compared with PROVIGIL 200 ([1]; result in words): significantly slower

NC(=O)C[S+]([O-])C(c1ccccc1)c1ccccc1 (stereo not shown) [Modafinil B# 62605008s, Modafinil]
% Oversize ([2]; particle size range 0-150 μm): 3.51%
% Oversize ([2]; particle size range 150-180 μm): 1.25%
% Oversize ([2]; particle size range 180-250 μm): 7.02%
% Oversize ([2]; particle size range 250-355 μm): 52.88%
% Oversize ([2]; particle size range 355-425 μm): 17.04%
% Oversize ([2]; particle size range 425-500 μm): 12.78%
% Oversize ([2]; particle size range 500-600 μm): 5.26%
% Oversize ([2]; particle size range 600-800 μm): 0.25%
% Oversize ([2]; particle size range >800 μm): 0.00%
D (0.35) particle size (% undersize) ([3]; average of 3 trials): 267.3 microns
d (0.1) particle size (% undersize) ([3]; average of 3 trials): 161.37 microns
d (0.5) particle size (% undersize) ([3]; average of 3 trials): 322.59 microns
d (0.85) particle size (% undersize) ([3]; average of 3 trials): 506.71 microns
d (0.9) particle size (% undersize) ([3]; average of 3 trials): 557.46 microns
d (0.95) particle size (% undersize) ([3]; average of 3 trials): 631.82 microns
share of particles greater than 220 um ([3]; conclusion from two sizing methods (Tables 1 and 2)): at least 65%
D (0.35) particle size (% undersize) [3, 4]: 273.94 microns and 266.93 microns and 261.04 microns
d (0.1) particle size (% undersize) [3, 4]: 172.45 microns and 159.38 microns and 152.26 microns
d (0.5) particle size (% undersize) [3, 4]: 328.58 microns and 322.53 microns and 316.66 microns
d (0.85) particle size (% undersize) [3, 4]: 510.24 microns and 507.09 microns and 502.79 microns
d (0.9) particle size (% undersize) [3, 4]: 561.92 microns and 558.30 microns and 552.16 microns
d (0.95) particle size (% undersize) [3, 4]: 633.06 microns and 632.46 microns and 629.94 microns
